The subject of assay [1] is known non-responder to creatine supplementation. Nature of the assay: Creatine non-responder RJ: two-week strength training program, total body weight and total strength. Type of assay: in vivo, human. The settings on record: subject one. How it is done: A. patient one, 198 cm tall, a known non-responder to creatine supplementation, followed a two-week strength training program while testing whether supplementation with PA-enriched-lecithin improves creatine response. Total starting total body weight and strength were measured on day one, followed by the training program, consisting of concentric and eccentric isotonic lifting exercises that worked the upper and lower body muscle groups. Either free weights or weight machines were used once or twice weekly. Strength training was performed three times per week with at least one day of rest between sessions, which alternated between lower and upper body exercises. During the two-week period, a total of six training sessions (three upper and three lower) were performed. Each exercise included two sets of ten repetitions at 30% and 60% 1RM, followed by two sets of 3 to 5 repetitions at 90% 1RM.
The lower body exercise included seven different exercises: seated leg press, leg curls, standing calf raises, leg extensions, inclined leg lift, inverted situps (back extension) and 45° inclined situps. The upper body exercise consisted of seven different exercises: bench press, latissimus pulldown, triceps pulldown, inclined dumbbell curls, seated preacher curls, seated rows, and CyBec Pec Fly.
Total upper and lower body weight lifted were calculated as the average weight lifted during the last three sets multiplied by the average repetition in each set. Total strength was determined as the combined lower and upper total weight lifted. Total body weight was determined after day 8 and day 15. Strength was measured on days 1 and 15.
A four-week rest period followed the first two-week training program. The same program was repeated twice, the control was supplementation of creatine monohydrate (Creapure, Alzchem, Germany) 4 times 5 grams per day for five days of loading, followed by nine days of five grams creatine monohydrate. During the second program, creatine monohydrate was given as for the control program with the addition of PA-enriched lecithin (Chemi Nutra, White Bear Lake, Minn.) which was about 50% PA.

Assay [2] shares this test system. As to the kind of experiment: Creatine non-responder MP: three-week strength training program, total body weight and total strength. Type of assay: in vivo, human. The settings on record: subject two. How it is done: B. patient two, 185 cm tall, also a known non-responder to creatine supplementation, followed a three-week strength training program while testing whether supplementation with PA-enriched-lecithin improves creatine response. Total starting total body weight and strength were measured on day one, followed by the training program, consisting of concentric and eccentric isotonic lifting exercises that worked the upper and lower body muscle groups with either free weights or weight machines used once or twice weekly. Strength training was performed three times per week with at least one day of rest between sessions, which alternated between lower and upper body exercises. During the three-week period, a total of […] were performed. Each exercise included two sets of ten repetitions at 40% and 65% 1RM, followed by two sets of 3 to 5 repetitions at 90% 1RM.
The lower body exercise included seven different exercises: seated leg press, leg curls, standing calf raises, leg extension, inclined leg lift, inverted situps (back extension) and 45° inclined situps. The upper body exercise consisted of seven different exercises: bench press, latissimus pulldown, triceps pulldown, inclined dumbbell curls, seated preacher curls, seated rows, and CyBec Pec Fly. Total upper and lower body weight lifted were calculated as the average weight lifted during the last three sets multiplied by the average repetition in each set. Total strength was determined as the combined lower and upper total weight lifted. […] Strength was measured on days 1 and 22.
A four-week rest period followed the first three-week training program. The same program was repeated twice, the control was supplemented with creatine monohydrate (Creapure®, Alzchem, Germany) 5 grams per day of five grams creatine monohydrate for 21 days. During the second program, creatine monohydrate was given as for the control program with the addition of 1 gram per day PA-enriched lecithin (Chemi Nutra, White Bear Lake, Minn.) which was about 50% PA.

With `CN(CC(=O)O)C(=N)N.O` [Creatine Supplement, creatine monohydrate], the “weight, day 1” value is on record as 88.8 kg in assay [1] (day 1 of two-week program) and 81.9 kg in assay [2] (day 1 of three-week program). In addition, the total strength increase in assay [1] (day 1 vs day 15) and in assay [2] (day 1 vs day 22) was 5% each time. Besides, the “weight, day 8” value in assay [1] (day 8 of two-week program) is listed as 88.3 kg. The “weight, day 15” value in assay [1] (day 15 of two-week program) is listed as 88.0 kg. Besides, the “effect on body weight” value in assay [1] (two-week program) and in assay [2] (three-week program) was “not effective in preventing a slight weight loss” throughout. Also, the “weight, day 10” value in assay [2] (day 10 of three-week program) is 81.5 kg. Besides, the “weight, day 22” value in assay [2] (day 22 of three-week program) was determined as 81.2 kg.

For the origin of these results see patent US20120141448A1, “Method for increasing muscle mass and strength” (priority 2010, published 2012).
